Test results from ChEMBL document CHEMBL1201862, “PubChem BioAssay data set” (2004).
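Results reflect a 48-hour exposure of cells in 96-well plates to compound at five concentrations. GI50 marks 50% less growth.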 Calls of active or inactive are those of the source. Cut-off read from the data, not from the text of the source: active = GI50 up to about 1.1 µM and inactive = higher.

Assays:
Experiment in all cases: NCI tumour cell line growth inhibition, 48 h
[1] = test system: NCI-H23
[2] = test system: NCI-H226
[3] = test system: T47D
[4] = test system: SK-MEL-28
[5] = test system: U-251
[6] = test system: OVCAR-8
[7] = test system: PC-3
[8] = test system: DU-145
[9] = test system: SF-295
[10] = test system: HCT-15
[11] = test system: OVCAR-3
[12] = test system: CCRF-CEM
[13] = test system: Hs-578T
[14] = test system: SK-OV-3
[15] = test system: HOP-62
[16] = test system: 786-0
[17] = test system: NCI/ADR-RES
[18] = test system: SNB-19

Row | SMILES | GI50 [1] | GI50 [2] | GI50 [3] | GI50 [4] | GI50 [5] | GI50 [6] | GI50 [7] | GI50 [8] | GI50 [9] | GI50 [10] | GI50 [11] | GI50 [12] | GI50 [13] | GI50 [14] | GI50 [15] | GI50 [16] | GI50 [17] | GI50 [18]
1 | OCC(O)COCn1cc(Cn2ncc3c(NCc4ccccc4)ncnc32)nn1 (centres undefined) | > 100 µM (inactive) | > 100 µM (inactive) | > 100 µM (inactive) | > 100 µM (inactive) | > 100 µM (inactive) | > 100 µM (inactive) | > 100 µM (inactive) | > 100 µM (inactive) | > 100 µM (inactive) | > 100 µM | > 100 µM (inactive) | > 100 µM (inactive) | 25 µM (inactive) | > 100 µM (inactive) | > 100 µM (inactive) | > 100 µM (inactive) | > 100 µM (inactive) | > 100 µM (inactive)
2 | COc1cc(OCc2nc3ccccc3n3cccc23)cc(OC)c1OC | 5.6 µM (inactive) | 9.73 µM (inactive) | 3.78 µM (inactive) | 22.1 µM (inactive) | 23.3 µM (inactive) | 17.1 µM (inactive) | 30.3 µM (inactive) | 55.8 µM (inactive) | 11.3 µM (inactive) | 8.09 µM | 15 µM (inactive) | 8.49 µM (inactive) | 52.6 µM (inactive) | 40.6 µM (inactive) | 37.2 µM (inactive) | 24.4 µM (inactive) | 17.9 µM (inactive) | > 51.1 µM (inactive)
3 | C/C=C1/CN2CCC34c5ccccc5N(C)C23C2CC1C4(C(=O)OC)C(OC(C)=O)O2 (centres undefined) | > 100 µM (inactive) | > 100 µM (inactive) | > 100 µM (inactive) | > 100 µM (inactive) | > 100 µM (inactive) | > 100 µM (inactive) | > 100 µM (inactive) | > 100 µM (inactive) | > 100 µM (inactive) | > 100 µM | > 100 µM (inactive) | > 100 µM (inactive) | > 100 µM (inactive) | > 100 µM (inactive) | > 100 µM (inactive) | > 100 µM (inactive) | > 100 µM (inactive) | > 100 µM (inactive)
